Measurements: article PMC7203153, “Rational identification and characterisation of peptide ligands for targeting polysialic acid” (Scientific Reports, 2020)
Where a SMILES comes first, the peptide text is derived from it.

Legend:
[1] = Peptide microarray affinity screening against α-2,8-PSA (colominic acid); format: binding, Escherichia coli; settings: 10 μM CA
Description: Peptide library synthesis, microarray preparation, and microarray screening were performed as described previously[25] with the following specifications. Siglec-related sequences were N-terminally acetylated to match the charge of the corresponding protein fragment. All peptides were printed in triplicate (60 nL spots), and each initial affinity screening was carried out at least three times. Screening was conducted with 10 μM colominic acid (CA; 5 mL per microarray), the Escherichia coli homolog of α-2,8-PSA identical in structure to human-derived PSA[67], and with antibody-based chemiluminescent detection of CA. For selectivity screening, microarrays were challenged with 10 μM CA with 0, 0.1, 1, and 10 μM α-2,8/9-PSA in separate conditions (5 mL total volume each), where molar concentrations were based on molecular weight estimation of synthesized 2,8/9-PSA (details on α-2,8/9-PSA production, purification, and analysis are provided in Supplementary Information). Selectivity screening with monomeric sialic acid was conducted with mass and molar equivalents of N-acetylneuraminic acid (Rose Scientific, Ltd.) along with 10 μM CA (5 mL total volume each). The mass equivalent amount of sialic acid (specifically, 970 μM sialic acid for a given volume of 10 μM CA) was calculated for CA of an average degree of polymerization of 100. For study of pH-dependent binding, affinity screening with CA was performed using PBS buffers of pH 6.0, 7.0, 7.4, and 8.0 (10 mM phosphate, 100 mM NaCl). The impact of NaCl on peptide binding was assessed at pH 7.4 with 0, 100, and 200 mM NaCl.
Microarray image and data analysis was performed as described. […] Of the triplicate experiments used to generate mean microarray affinity intensities in standard conditions (within each of which 762 peptides were represented in triplicate), 225 out of 762 values in one of these three experiments were derived from raw data previously reported, but were alternatively analysed as stated. Peptide isoelectric points were calculated with the EMBOSS iep program.

[2] = FA assay with chondroitin sulphate A; settings: FA assay as for peptide–PSA; triplicate measurements; read-out: KD for binding to CS-A
Description: a Neu5Ac concentration (µM) b Neu5Ac concentration (µM) c CS-A concentration (µM)
Supplementary Figure S4. (a–b) Interaction of I-P24 and I-P264 with Neu5Ac as asses sed by fluorescence anisotropy (FA) titrations in the (a) absence or (b ) presence of 500 µM P S A.
For a given volume, the highest concentration tested (150 mM) is approximately mass […]
equivalent to 1.5 mM PSA. […]
except for a small decrease in anisotropy at the highest concentrations of Neu 5Ac, indicating specific peptide binding to PSA. Error bars represent standard deviations from two independent experiments (0.15–15000 µM), with triplicate intra-as say measurements (0.15–150000 µM) .
(c) FA assay for binding of I-P24 and I-P264 to chondroitin sulphate A (CS-A). […] Anisotropies were determined from triplicate measurements (error bars excluded for clarity). […]
Asse ssment of selective binding of peptides with the FA assay is only presented in the context of alternative glycans as proof-of-principle above. However, given the comparatively lower sensitivity of microarray screening, FA may be employed for quantifying affinity in various buffers to asses s the effects of various ions, if any, on PSA binding. […]
(also on this page, place not known: Assessment assess assessed (b) Neu5Ac, PSA. intra-assay µM). assessment experiments, 5Ac (µM)a cNeu5Ac Anisotropy (mA) Anisotropy (mA) Anisotropy (mA)) […]

CC(=O)N[C@@H](Cc1ccccc1)C(=O)N[C@@H](CCCCN)C(=O)NCC(=O)N[C@@H](CCCNC(=N)N)C(=O)N[C@H](C(=O)N[C@@H](CO)C(=O)N1CCC[C@H]1C(=O)N[C@@H](CCCCN)C(=O)N[C@H](C(=O)NCC(=O)N[C@@H](C)C(=O)N1CCC[C@H]1C(=O)N[C@H](C(=O)N[C@@H](C)C(=O)N[C@H](C(N)=O)[C@@H](C)O)C(C)C)[C@@H](C)O)[C@@H](C)O [I-P24] (Ac-FKGRTSPKTGAPVAT-NH2)
change in microarray binding with 200 mM vs 100 mM NaCl ([1]; pH 7.4): did not display any change in binding
microarray binding to PSA without NaCl ([1]; pH 7.4, 0 mM NaCl): detectable binding
microarray binding intensity (rank within library) ([1]; 762-peptide library, three independent screens, triplicate measurements): top 2%
Kd [2]: > 1 mM
